Test results as given in the NIST ThermoML archive (doi:10.1021/je100832h).

Test: xn = mol fraction of the nth substance listed
Conditions: 101.32 kPa, Liquid, Vibrating tube method

CCCCCCCCCC [decane] + CCOC(C)=O
Conditions	mass density [kg/m3]
291.15 K, x2 = 0	731.22
291.15 K, x2 = 0.0174	732.37
291.15 K, x2 = 0.0789	736.87
291.15 K, x2 = 0.1457	742.14
291.15 K, x2 = 0.2494	751.47
291.15 K, x2 = 0.3508	762.27
291.15 K, x2 = 0.4382	773.02
291.15 K, x2 = 0.5149	783.83
291.15 K, x2 = 0.5781	793.79
291.15 K, x2 = 0.6446	805.51
291.15 K, x2 = 0.7051	817.52
291.15 K, x2 = 0.7648	830.7
291.15 K, x2 = 0.8069	841.06
291.15 K, x2 = 0.8553	854.05
291.15 K, x2 = 0.8914	864.68
291.15 K, x2 = 0.9318	877.69
291.15 K, x2 = 0.9794	894.7
298.15 K, x2 = 0	726.2
298.15 K, x2 = 0.0319	728.3
298.15 K, x2 = 0.1165	734.6
298.15 K, x2 = 0.2048	741.9
298.15 K, x2 = 0.2835	749.3
298.15 K, x2 = 0.3475	756.1
298.15 K, x2 = 0.4252	765.35
298.15 K, x2 = 0.4873	773.59
298.15 K, x2 = 0.5417	781.58
298.15 K, x2 = 0.6031	791.53
298.15 K, x2 = 0.6469	799.34
298.15 K, x2 = 0.6957	808.8
298.15 K, x2 = 0.7407	818.3
298.15 K, x2 = 0.78	827.2
298.15 K, x2 = 0.8179	836.5
298.15 K, x2 = 0.8516	845.4
298.15 K, x2 = 0.8865	855.4
298.15 K, x2 = 0.9207	866.1
298.15 K, x2 = 0.9604	879.5
318.15 K, x2 = 0	710.9
318.15 K, x2 = 0.0117	711.52
318.15 K, x2 = 0.0758	715.68
318.15 K, x2 = 0.1539	721.34
318.15 K, x2 = 0.2456	728.94
318.15 K, x2 = 0.2848	732.56
318.15 K, x2 = 0.3468	738.71
318.15 K, x2 = 0.3714	741.31
318.15 K, x2 = 0.4391	749.04
318.15 K, x2 = 0.516	758.96
318.15 K, x2 = 0.5314	761.13
318.15 K, x2 = 0.5878	769.54
318.15 K, x2 = 0.6448	778.92
318.15 K, x2 = 0.694	787.77
318.15 K, x2 = 0.7127	791.38
318.15 K, x2 = 0.7829	806.2
318.15 K, x2 = 0.8204	815
318.15 K, x2 = 0.8538	823.5
318.15 K, x2 = 0.8886	833
318.15 K, x2 = 0.9198	842.3
318.15 K, x2 = 0.9553	853.8
328.15 K, x2 = 0	703.34
328.15 K, x2 = 0.0347	705.37
328.15 K, x2 = 0.1351	711.99
328.15 K, x2 = 0.234	719.58
328.15 K, x2 = 0.3322	728.47
